In PubChem BioAssay (NCI) one finds TGI data, which are given here for eleven compounds.

Holding throughout (assay): NCI-60 cell line screen, 48 h
The test system of assay [1] is ACHN renal.
For assay [2], the system named is CCRF-CEM leukemia.
For assay [3], the system named is COLO 205 colon.
Assay [4] concerns K-562 leukemia.
For assay [5], the system named is M14 melanoma.
In assay [6] the test system is MDA-N.
The test system of assay [7] is NCI-H23 lung.
Assay [8] concerns NCI-H522 lung.
Assay [9] deals with OVCAR-8 ovarian.
Assay [10] has as its system PC-3 prostate.
Assay [11] deals with RPMI-8226 leukemia.
In assay [12] the test system is SF-268 CNS.
For assay [13], the system named is SK-MEL-2 melanoma.

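48-hour exposure; five concentrations; linearly interpolated endpoints. TGI denotes the concentration required for complete inhibition of growth.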

Regarding `CN(/N=C/c1ccccn1)C1=NCCCCN1`, the TGI in assay [1], in assay [2], in assay [3], in assay [4], in [5] and in assay [6] was more than 100 µM throughout. Also, the TGI in assay [7], in assay [8], in [9], in [10], in [11] and in [12] was more than 100 µM each time. Moreover, the TGI in assay [13] was more than 100 µM.
As to `CCOC(=O)C(NC(=O)CC(C)C)(Nc1ccc(S(=O)(=O)Nc2nc(C)cc(C)n2)cc1)C(F)(F)F` (stereo not given), the TGI in assay [1], in assay [2], in [3], in [4], in assay [5] and in assay [6] was more than 100 µM throughout. Besides, the TGI in [7], in [8], in [9], in assay [10], in assay [11] and in assay [12] was more than 100 µM each time. In assay [13], this compound displayed a TGI of more than 100 µM.
Take `CN(C)CCCCN1c2ccccc2Sc2cc(N=[N+]=[N-])ccc21`: the TGI in [1] came out at 4.5 µM; in assay [2], 4.11 µM; in assay [3], 3.09 µM; in assay [5], 3.08 µM; in assay [6] it was 3.1 µM; in assay [7] it was 22.4 µM. In addition, the TGI worked out at 3.05 µM in assay [8]; 3.38 µM in assay [9]; 4.22 µM in [10]; 6.06 µM in assay [11]; 4.62 µM in assay [12]; 3.4 µM in [13].
As for `O=[N+]([O-])c1ccc2[nH]ncc2c1Cl`, the TGI in assay [1] was 51.5 µM; in assay [2] it was more than 100 µM; in assay [3], 28.2 µM; in assay [4], more than 100 µM; in assay [6], 48.1 µM; in assay [8] it was 16.5 µM. The TGI was more than 100 µM in assay [9], 90.7 µM in assay [10], 61.2 µM in assay [11] and 40.4 µM in assay [13].
As for `COC(=O)c1ccccc1/C=C1\Cc2cc(C)cc(C)c2C1=O`, the TGI in assay [1], in [2], in assay [4], in assay [6], in assay [7] and in [8] was more than 100 µM each time. The TGI in [9], in assay [10], in assay [11], in [12] and in assay [13] was more than 100 µM each time.
Take `Cc1nn(-c2ccccc2)c2[nH]c(=S)cnc12`: the TGI in [2], in assay [4], in assay [5], in assay [6], in assay [7] and in [8] was more than 100 µM throughout. Besides, the TGI in assay [9], in [10], in assay [11], in assay [12] and in [13] was more than 100 µM in each case.
Consider `CN(C(=O)Cc1ccc(Cl)c(Cl)c1)[C@@H]1CCCC[C@H]1[N+]1(C)CC=CC1`, for which the TGI in assay [1], in assay [3], in assay [4], in assay [5], in [6] and in assay [7] was more than 100 µM each time. Further, the TGI in assay [8], in assay [9], in assay [10], in [11], in assay [12] and in assay [13] was more than 100 µM each time.
Take `NC1=NN(c2ccccc2)C2(O)c3ccncc3C3=NN(c4ccccc4)C(=O)C132` (stereo not given): the TGI in assay [1], in assay [3], in assay [4], in assay [5], in [6] and in [7] was more than 100 µM in each case. Also, the TGI in assay [8], in assay [9], in assay [10], in [11], in assay [12] and in assay [13] was more than 100 µM in each case.
As to `COc1ccc(C(c2c[nH]c3ccc(Br)cc23)c2c[nH]c3ccc(Br)cc23)cc1`, the TGI in [1] turned out to be 0.845 µM; in assay [2] it was 0.436 µM; in assay [3], 0.347 µM; in [4] it was 0.423 µM; in [5], 0.7 µM; in [6] it was 0.552 µM. In addition, the TGI came out at 1.47 µM in [7]; 0.397 µM in [8]; 0.843 µM in [10]; 0.543 µM in assay [11]; 0.631 µM in assay [12]; 1.22 µM in assay [13].
On to `CCOP(=O)(OCC)c1ccc(=O)[nH]c1-c1cccs1`, for which the TGI in [1], in [3], in assay [4], in assay [5], in assay [6] and in assay [7] was more than 100 µM throughout. Moreover, the TGI in assay [8], in assay [9], in assay [10], in [11], in [12] and in assay [13] was more than 100 µM each time.
For the compound `CCN(CC)C(=S)SNCc1ccc(S(N)(=O)=O)cc1`, the TGI in assay [1] was 29.6 µM; in assay [3], 27.7 µM; in [4], more than 100 µM; in assay [5], 25.1 µM; in [6] it was 29 µM; in [7] it was 44.3 µM. For the same compound, the TGI in assay [8] was determined as 22.2 µM; in assay [9] it was 28.4 µM; in assay [10], 26.1 µM; in assay [11] it was 22.8 µM; in assay [12], 26.7 µM; in assay [13], 39.5 µM.
